US20070071778A1 (ISP INVESTMENTS INC., priority 2005, published 2007)

Tested on: mixed fungal inoculum (Aspergillus niger, Penicillium funiculosum and Stachybotrys chartarum)
Assay: Fungicidal efficacy on water saturated gypsum boards
Assay type: cell-based
Set-up: key: Presence (+); Absence (−) of Fungal Growth
Settings: gypsum board, 1,000 ppm triclosan, 28° C., 80% RH, 30-45 days
Protocol: The compositions of Example 9 were diluted to 1,000 ppm of triclosan. Then both sides of a gypsum board (cream and grey) sample (2×2×½ in.) were brush coated with each formulation and allowed to dry for 24 hours. The Controls were gypsum boards treated with only water or with only 1,000 ppm of triclosan in dimethyl sulfamide. The treated gypsum boards were then placed on a Petri dish and water was added to saturate the board. The water saturated gypsum boards were then inoculated with a mixed fungal inoculum (Aspergillus niger, Penicillium funiculosum and Stachybotrys chartarum) containing ca. 10^5 spores/ml. The samples were incubated at 28° C., 80% RH for 30-45 days and rated for the presence or absence of fungal growth thereon. Samples showing no growth were re-inoculated and incubated for another 30-45 days.

Structure (SMILES): Oc1cc(Cl)ccc1Oc1ccc(Cl)cc1Cl [Triclosan, triclosan]
- Presence (+)/Absence (−) of Fungal Growth, Cream Side: +
- Presence (+)/Absence (−) of Fungal Growth, Grey Side: +
